Experiments:
Test in all cases: MIC by broth dilution (NCCLS M7-A2)
Assay type in all cases: cell-based
Settings in all cases: 90% growth inhibition
E. coli ATCC 25922 = tested on: E. coli ATCC 25922
Source text: (§1) MIC levels for all compound were determinated on panel of susceptible, and resistant Gram positive bacterial strains (S. aureus, S. pneumoniae and S. pyogenes) and on Gram negative strains (E. coli, H. influenzae, […], M. catarrhalis).

E. faecalis ATCC 29212 = tested on: E. faecalis ATCC 29212
Source text: as §1

H. influenzae ATCC 49247 = tested on: H. influenzae ATCC 49247
Source text: as §1

S. pyogenes M = tested on: S. pyogenes M
Source text: as §1

S. pyogenes iMLS = tested on: S. pyogenes iMLS
Source text: as §1

S. pyogenes = tested on: S. pyogenes
Source text: as §1

[1] = tested on: M. catarrhalis ATCC 23246
Source text: as §1

S. aureus ATCC 13709 = tested on: S. aureus ATCC 13709
Source text: as §1

S. pneumoniae = tested on: S. pneumoniae
Source text: as §1

| Molecule | MIK (E. coli ATCC 25922) | MIK (E. faecalis ATCC 29212) | MIK (H. influenzae ATCC 49247) | MIK (S. pyogenes M) | MIK (S. pyogenes iMLS) | MIK (S. pyogenes) | MIK [1] | MIK (S. aureus ATCC 13709) | MIK (S. pneumoniae) |
| --- | --- | --- | --- | --- | --- | --- | --- | --- | --- |
| CC[C@H]1OC(=O)[C@H](C)[C@@H](O[C@H]2C[C@@](C)(OC)[C@@H](O)[C@H](C)O2)[C@H](C)[C@@H](O[C@@H]2O[C@H](C)C[C@H](N(C)C)[C@H]2O)[C@](C)(O)C[C@@H](C)C(=O)[C@H](C)[C@@H](O)[C@]1(C)O [Er, erythromycin A, reference compound] | 32 µg/mL | 1 µg/mL | 2 µg/mL | 8 µg/mL | >64 µg/mL | 0.25 µg/mL |  |  |  |
| 9-Deoxo-9-dihydro-9a-N-[N′-(β-cyanoethyl)-N′-(3,4,5-trimethoxyphenyl)carbamoyl-γ-aminopropyl]-9a-aza-9a-homoerithromycin A [Example 37] | 16 µg/mL | 16 µg/mL | 2 µg/mL | 8 µg/mL | 47 µg/mL | ≦0.125 μg/ml | 1 µg/mL | 4 µg/mL | ≦0.125 μg/ml |
| CCOC(=O)CNC(=O)NCCCN1CC(C)CC(C)(O)C(OC2OC(C)CC(N(C)C)C2O)C(C)C(OC2CC(C)(OC)C(O)C(C)O2)C(C)C(=O)OC(CC)C(C)(O)C(O)C1C (stereo not drawn) [Example 9, 9-Deoxo-9-dihydro-9a-N-(N′-ethoxycarbonylmethylcarbamoyl-γ-aminopropyl)-9a-aza-9a-homoerithromycin A] | >64 µg/mL | >64 µg/mL | 32 µg/mL | 64 µg/mL | 16 µg/mL | ≦0.125 μg/ml | 4 µg/mL | 8 µg/mL | ≦0.125 μg/ml |
| CC[C@H]1OC(=O)[C@H](C)[C@@H](O[C@H]2C[C@@](C)(OC)[C@@H](O)[C@H](C)O2)[C@H](C)[C@@H](O[C@@H]2O[C@H](C)C[C@H](N(C)C)[C@H]2O)[C@](C)(O)C[C@@H](C)CN(CCCNC(=O)Nc2ccccc2C(F)(F)F)[C@H](C)[C@@H](O)[C@]1(C)O [Example 6, 9-Deoxo-9-dihydro-9a-N-[N′-(2-trifluoromethyl)phenylcarbamoyl-γ-aminopropyl]-9a-aza-9a-homoerithromycin A] | 32 µg/mL | 64 µg/mL | 16 µg/mL | 32 µg/mL | 8 µg/mL | ≦0.125 μg/ml | 8 µg/mL | 2 µg/mL | ≦0.125 μg/ml |
| CC[C@H]1OC(=O)[C@H](C)[C@@H](O[C@H]2C[C@@](C)(OC)[C@@H](O)[C@H](C)O2)[C@H](C)[C@@H](O[C@@H]2O[C@H](C)C[C@H](N(C)C)[C@H]2O)[C@](C)(O)C[C@@H](C)CN(CCCNC(=S)NCc2ccccc2)[C@H](C)[C@@H](O)[C@]1(C)O [Example 4, 9-Deoxo-9-dihydro-9a-N-(N′-benzylthiocarbamoyl-γ-aminopropyl)-9a-aza-9a-homoerithromycin A] | 16 µg/mL | 8 µg/mL | 2 µg/mL | 4 µg/mL | 2 µg/mL | ≦0.125 μg/ml | 1 µg/mL | 2 µg/mL | ≦0.125 μg/ml |
| CC[C@H]1OC(=O)[C@H](C)[C@@H](O[C@H]2C[C@@](C)(OC)[C@@H](O)[C@H](C)O2)[C@H](C)[C@@H](O[C@@H]2O[C@H](C)C[C@H](N(C)C)[C@H]2O)[C@](C)(O)C[C@@H](C)CN(CCCNC(=O)Nc2cccc3ccccc23)[C@H](C)[C@@H](O)[C@]1(C)O [Example 2, 9-Deoxo-9-dihydro-9a-N-[N′-(1-naphtyl)carbamoyl-γ-aminopropyl]-9a-aza-9a-homoerithromycin A] | 8 µg/mL | 4 µg/mL | 1 µg/mL | 4 µg/mL | 2 µg/mL | ≦0.125 μg/ml | 0.25 µg/mL | 0.5 µg/mL | ≦0.125 μg/ml |
| CC[C@H]1OC(=O)[C@H](C)[C@@H](O[C@H]2C[C@@](C)(OC)[C@@H](O)[C@H](C)O2)[C@H](C)[C@@H](O[C@@H]2O[C@H](C)C[C@H](N(C)C)[C@H]2O)[C@](C)(O)C[C@@H](C)CN(CCCNC(=O)N(CCC#N)CCCc2ccccc2)[C@H](C)[C@@H](O)[C@]1(C)O [Example 33, 9-Deoxo-9-dihydro-9a-N-[N′-(β-cyanoethyl)-N′-(3-phenylpropyl)carbamoyl-γ-aminopropyl]-9a-aza-9a-homoerithromycin A] | 16 µg/mL | 16 µg/mL | 2 µg/mL | 8 µg/mL | 4 µg/mL | ≦0.125 μg/ml | 1 µg/mL | 1 µg/mL | ≦0.125 μg/ml |
| CC[C@H]1OC(=O)[C@H](C)[C@@H](O[C@H]2C[C@@](C)(OC)[C@@H](O)[C@H](C)O2)[C@H](C)[C@@H](O[C@@H]2O[C@H](C)C[C@H](N(C)C)[C@H]2O)[C@](C)(O)C[C@@H](C)CN(CCCNC(=O)NC(C)c2cccc3ccccc23)[C@H](C)[C@@H](O)[C@]1(C)O (stereo partly drawn) [Example 10] | 64 µg/mL | 16 µg/mL | 2 µg/mL | 16 µg/mL | 8 µg/mL | ≦0.125 μg/ml | 4 µg/mL | 16 µg/mL | 8 µg/mL |
| CC[C@H]1OC(=O)[C@H](C)[C@@H](O[C@H]2C[C@@](C)(OC)[C@@H](O)[C@H](C)O2)[C@H](C)[C@@H](O[C@@H]2O[C@H](C)C[C@H](N(C)C)[C@H]2O)[C@](C)(O)C[C@@H](C)CN(CCCNC(=O)NCc2ccccc2)[C@H](C)[C@@H](O)[C@]1(C)O [Example 3, 9-Deoxo-9-dihydro-9a-N-(N′-benzylcarbamoyl-γ-aminopropyl)-9a-aza-9a-homoerithromycin A] | 16 µg/mL | 16 µg/mL | 2 µg/mL | 8 µg/mL | 4 µg/mL | ≦0.125 μg/ml | 1 µg/mL | 0.5 µg/mL | ≦0.125 μg/ml |
| 9-Deoxo-9-dihydro-9a-N-[N′-(β-cyanoethyl)-N′-(β-phenylethyl)thiocarbamoyl-γ-aminopropyl]-9a-aza-9a-homoerithromycin A [Example 34] | 32 µg/mL | 16 µg/mL | 2 µg/mL | 8 µg/mL | 4 µg/mL | ≦0.125 μg/ml | 1 µg/mL | 1 µg/mL | ≦0.125 μg/ml |
| CC[C@H]1OC(=O)[C@H](C)[C@@H](O[C@H]2C[C@@](C)(OC)[C@@H](O)[C@H](C)O2)[C@H](C)[C@@H](O[C@@H]2O[C@H](C)C[C@H](N(C)C)[C@H]2O)[C@](C)(O)C[C@@H](C)CN(CCCNC(=O)Nc2ccc3ccccc3c2)[C@H](C)[C@@H](O)[C@]1(C)O [Example 12, 9-Deoxo-9-dihydro-9a-N-[N′-(2-naphtyl)carbamoyl-γ-aminopropyl]-9a-aza-9a-homoerithromycin A] | 32 µg/mL | 8 µg/mL | 2 µg/mL | 8 µg/mL | 2 µg/mL | ≦0.125 μg/ml | 0.5 µg/mL | 8 µg/mL | 16 µg/mL |
| CC[C@H]1OC(=O)[C@H](C)[C@@H](O[C@H]2C[C@@](C)(OC)[C@@H](O)[C@H](C)O2)[C@H](C)[C@@H](O[C@@H]2O[C@H](C)C[C@H](N(C)C)[C@H]2O)[C@](C)(O)C[C@@H](C)CN(CCCNC(=O)N(CCC#N)c2cccc3ccccc23)[C@H](C)[C@@H](O)[C@]1(C)O [Example 28, 9-Deoxo-9-dihydro-9a-N-[N′-(β-cyanoethyl)-N′-(1-naphtyl)carbamoyl-γ-aminopropyl]-9a-aza-9a-homoerithromycin A] | 8 µg/mL | 4 µg/mL | 1 µg/mL | 4 µg/mL | 2 µg/mL | ≦0.125 μg/ml | 0.25 µg/mL | 1 µg/mL | ≦0.125 μg/ml |
| CC[C@H]1OC(=O)[C@H](C)[C@@H](O[C@H]2C[C@@](C)(OC)[C@@H](O)[C@H](C)O2)[C@H](C)[C@@H](O[C@@H]2O[C@H](C)C[C@H](N(C)C)[C@H]2O)[C@](C)(O)C[C@@H](C)CN(CCCNC(=O)Nc2cc(OC)c(OC)c(OC)c2)[C@H](C)[C@@H](O)[C@]1(C)O [Example 11, 9-Deoxo-9-dihydro-9a-N-[N′-(3,4,5-trimethoxyphenyl)carbamoyl-γ-aminopropyl]-9a-aza-9a-homoerithromycin A] | >64 µg/mL | >64 µg/mL | 16 µg/mL | 64 µg/mL | 32 µg/mL | ≦0.125 μg/ml | 16 µg/mL | 4 µg/mL | ≦0.125 μg/ml |
| 9-Deoxo-9-dihydro-9a-N-[N′-(β-cyanoethyl)-N′-(2,4-dichlorophenyl)carbamoyl-γ-aminopropyl]-9a-aza-9a-homoerithromycin A [Example 39] | >64 µg/mL | >64 µg/mL | 16 µg/mL | 64 µg/mL | 32 µg/mL | ≦0.125 μg/ml | 16 µg/mL | 1 µg/mL | ≦0.125 μg/ml |
| 9-Deoxo-9-dihydro-9a-N-[N′-(β-cyanoethyl)-N′-isopropylcarbamoyl-γ-aminopropyl]-9a-aza-9a-homorithromycin A [Example 27] | 16 µg/mL | 32 µg/mL | 32 µg/mL | 32 µg/mL | 8 µg/mL | ≦0.125 μg/ml | 0.5 µg/mL | 4 µg/mL | ≦0.125 μg/ml |
